According to patent US10351561B2, “Pyrazolo[3,4-b]pyridines and imidazo[1,5-b]pyridazines as PDE1 inhibitors” (H. Lundbeck A/S, priority 2016, dated 2019):
Where two headings read alike, the source gives them in different places.

Assays:
Format in all cases: biochemical
Conditions in all cases: 15 nM tritium labelled cAMP, 1 hr at room temperature, SPA beads
PDE1A = PDE1A (Homo sapiens, UniProt P54750); assay: PDE1 inhibition assay (PDE1A), SPA with tritium labelled cAMP
Protocol: (§1) PDE1A, PDE1B and PDE1C assays were performed as follows: the assays were performed in 60 μL samples containing a fixed amount of the PDE1 enzyme (sufficient to convert 20-25% of the cyclic nucleotide substrate), a buffer (50 mM HEPES (4-(2-hydroxyethyl)-1-piperazineethanesulfonic acid) pH 7.6; 10 mM MgCl2; 0.02% Tween20), 0.1 mg/ml BSA (bovine serum albumin), 15 nM tritium labelled cAMP and varying amounts of inhibitors. Reactions were initiated by addition of the cyclic nucleotide substrate, and reactions were allowed to proceed for 1 hr at room temperature before being terminated through mixing with 20 μL (0.2 mg) yttrium silicate SPA beads (PerkinElmer). The beads were allowed to settle for 1 hr in the dark before the plates were counted in a Wallac 1450 Microbeta counter. The measured signals were converted to activity relative to an uninhibited control (100%) and IC50 values were calculated using XIFit (model 205, IDBS).

PDE1B = PDE1B (Homo sapiens, UniProt Q01064); assay: PDE1 inhibition assay (PDE1B), SPA with tritium labelled cAMP
Chain of PDE1B (Q01064 whole entry): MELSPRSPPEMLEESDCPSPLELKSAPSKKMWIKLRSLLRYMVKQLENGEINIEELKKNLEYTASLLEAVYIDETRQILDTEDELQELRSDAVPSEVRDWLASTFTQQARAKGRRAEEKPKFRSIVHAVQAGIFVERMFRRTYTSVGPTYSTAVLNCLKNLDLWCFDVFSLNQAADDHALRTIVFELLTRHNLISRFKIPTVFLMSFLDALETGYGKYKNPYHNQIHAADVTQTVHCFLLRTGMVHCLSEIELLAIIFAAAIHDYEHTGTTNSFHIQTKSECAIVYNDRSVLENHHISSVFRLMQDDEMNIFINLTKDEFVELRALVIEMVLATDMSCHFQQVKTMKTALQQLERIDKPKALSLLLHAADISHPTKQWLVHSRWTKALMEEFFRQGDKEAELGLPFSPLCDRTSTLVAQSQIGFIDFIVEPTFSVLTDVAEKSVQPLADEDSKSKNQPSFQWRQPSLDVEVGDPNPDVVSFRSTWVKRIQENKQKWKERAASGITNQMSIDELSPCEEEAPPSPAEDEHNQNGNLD
Protocol: Reactions were initiated by addition of the cyclic nucleotide substrate, and reactions were allowed to proceed for 1 hr at room temperature before being terminated through mixing with 20 μL (0.2 mg) yttrium silicate SPA beads (PerkinElmer).

PDE1C = PDE1C (Homo sapiens, UniProt Q14123); assay: PDE1 inhibition assay (PDE1C), SPA with tritium labelled cAMP
Chain of PDE1C (Q14123 whole entry): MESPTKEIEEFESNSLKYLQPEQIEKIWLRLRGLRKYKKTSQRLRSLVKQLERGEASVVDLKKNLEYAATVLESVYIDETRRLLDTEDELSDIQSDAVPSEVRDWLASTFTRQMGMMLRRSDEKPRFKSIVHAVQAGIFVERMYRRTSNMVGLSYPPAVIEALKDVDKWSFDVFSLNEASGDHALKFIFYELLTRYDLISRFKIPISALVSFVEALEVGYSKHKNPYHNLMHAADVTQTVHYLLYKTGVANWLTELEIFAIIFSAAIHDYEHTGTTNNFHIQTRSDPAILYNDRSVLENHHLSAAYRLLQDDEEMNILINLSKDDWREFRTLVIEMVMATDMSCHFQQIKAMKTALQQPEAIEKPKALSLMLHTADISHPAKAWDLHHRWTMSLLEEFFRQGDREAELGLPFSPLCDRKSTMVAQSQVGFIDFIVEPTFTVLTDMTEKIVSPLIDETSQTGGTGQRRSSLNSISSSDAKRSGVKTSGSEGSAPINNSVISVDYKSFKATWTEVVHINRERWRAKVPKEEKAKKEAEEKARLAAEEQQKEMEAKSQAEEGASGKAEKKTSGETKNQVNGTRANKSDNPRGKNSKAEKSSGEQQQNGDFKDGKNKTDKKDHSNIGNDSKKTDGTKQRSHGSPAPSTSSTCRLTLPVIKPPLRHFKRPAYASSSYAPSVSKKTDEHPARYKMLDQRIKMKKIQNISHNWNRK
Protocol: as §1

Chain of PDE1A (P54750 whole entry): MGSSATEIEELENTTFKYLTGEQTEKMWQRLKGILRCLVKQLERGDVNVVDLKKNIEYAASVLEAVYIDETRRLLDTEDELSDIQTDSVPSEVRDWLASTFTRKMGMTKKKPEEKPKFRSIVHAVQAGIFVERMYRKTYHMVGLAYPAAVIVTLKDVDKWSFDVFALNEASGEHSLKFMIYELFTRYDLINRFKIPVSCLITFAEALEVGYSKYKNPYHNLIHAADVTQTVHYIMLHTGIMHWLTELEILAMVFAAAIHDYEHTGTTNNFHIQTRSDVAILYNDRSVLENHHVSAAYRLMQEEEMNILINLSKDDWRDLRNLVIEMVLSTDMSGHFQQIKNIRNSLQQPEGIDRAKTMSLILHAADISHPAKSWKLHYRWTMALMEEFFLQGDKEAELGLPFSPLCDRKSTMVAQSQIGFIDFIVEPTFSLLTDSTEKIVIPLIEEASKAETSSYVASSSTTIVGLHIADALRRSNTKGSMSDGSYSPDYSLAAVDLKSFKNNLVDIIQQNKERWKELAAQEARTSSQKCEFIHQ

| SMILES | IC50 (PDE1A) [nM] | IC50 (PDE1B; read-out: PDE1B, IC50) [nM] | IC50 (PDE1C) [nM] | IC50 (PDE1B; PDE1B, IC50 (nM)) [nM] |
| --- | --- | --- | --- | --- |
| CCOc1ncccc1-c1cc(NCc2ccn(C)n2)c2c(C(C)C)nn(C)c2n1 [Example 21, 6-(2-ethoxy-3-pyridyl)-3-isopropyl-1-methyl-N-[(1-methylpyrazol-3-yl)methyl]pyrazolo[3,4-b]pyridin-4-amine] | 30 | 5.3 | 36 | – |
| CCOc1ncccc1-c1cc(NCc2cnn(C)n2)c2c(C(C)C)nn(C)c2n1 [Example 26, 6-(2-ethoxypyridin-3-yl)-3-isopropyl-1-methyl-N-((2-methyl-2H-1,2,3-triazol-4-yl)methyl)-1H-pyrazolo[3,4-b]pyridin-4-amine] | 110 | – | 75 | 18 |
| CCOc1ncccc1-c1cc(NCc2cnc(C)o2)c2c(C(C)C)nn(C)c2n1 [Example 27, 6-(2-ethoxy-3-pyridyl)-3-isopropyl-1-methyl-N-[(2-methyloxazol-5-yl)methyl]pyrazolo[3,4-b]pyridin-4-amine] | 53 | 10 | 60 | – |
| CCOc1ncccc1-c1cc(NCc2cn(C)nn2)c2c(C(C)C)nn(C)c2n1 [Example 29, 6-(2-ethoxy-3-pyridyl)-3-isopropyl-1-methyl-N-[(1-methyltriazol-4-yl)methyl]pyrazolo[3,4-b]pyridin-4-amine] | 18 | 1.6 | 33 | – |
| CCOc1ncccc1-c1cc(NCc2cn[nH]c2)c2c(C(C)C)nn(C)c2n1 [Example 30, 6-(2-ethoxy-3-pyridyl)-3-isopropyl-1-methyl-N-(1H-pyrazol-4-ylmethyl)pyrazolo[3,4-b]pyridin-4-amine] | 85 | 16 | 76 | – |
| CCOc1ncccc1-c1cc(NCc2nnc(C)o2)c2c(C(C)C)nn(C)c2n1 [Example 31, 6-(2-ethoxy-3-pyridyl)-3-isopropyl-1-methyl-N-[(5-methyl-1,3,4-oxadiazol-2-yl)methyl]pyrazolo[3,4-b]pyridin-4-amine] | 110 | 16 | 110 | – |

Stronger by IC50 (PDE1A), values ahead:

| IC50 (PDE1A) [nM] | IC50 (PDE1B; read-out: PDE1B, IC50) [nM] | IC50 (PDE1C) [nM] | SMILES | IC50 (PDE1B; PDE1B, IC50 (nM)) [nM] |
| --- | --- | --- | --- | --- |
| 17 | 1.8 | 16 | CCOc1ncccc1-c1cc(NCc2cnn(C)c2)c2c(C(C)C)nc(C)n2n1 [Example 22, 2-(2-ethoxy-3-pyridyl)-5-isopropyl-7-methyl-N-[(1-methylpyrazol-4-yl)methyl]imidazo[1,5-b]pyridazin-4-amine] | – |
| 16 | 2.8 | 30 | CCOc1ncccc1-c1cc(NCc2nnn(C)n2)c2c(C(C)C)nn(C)c2n1 [Example 20, 6-(2-ethoxy-3-pyridyl)-3-isopropyl-1-methyl-N-[(2-methyltetrazol-5-yl)methyl]pyrazolo[3,4-b]pyridin-4-amine] | – |
| 16 | 6.3 | 18 | CCOc1ncccc1-c1cc(NCc2cncc(OC)c2)c2c(C(C)C)nn(C)c2n1 [Example 25, 6-(2-ethoxy-3-pyridyl)-3-isopropyl-N-[(5-methoxy-3-pyridyl)methyl]-1-methyl-pyrazolo[3,4-b]pyridin-4-amine] | – |
| 14 | 1.8 | 13 | CCOc1ncccc1-c1cc(NCc2ccn(C)n2)c2c(C(C)C)nc(C)n2n1 [Example 24, 2-(2-ethoxy-3-pyridyl)-5-isopropyl-7-methyl-N-[(1-methylpyrazol-3-yl)methyl]imidazo[1,5-b]pyridazin-4-amine] | – |
| 14 | 4.4 | 13 | CCOc1ncccc1-c1cc(NCc2cnc(C)s2)c2c(C(C)C)nn(C)c2n1 [Example 28, 6-(2-ethoxy-3-pyridyl)-3-isopropyl-1-methyl-N-[(2-methylthiazol-5-yl)methyl]pyrazolo[3,4-b]pyridin-4-amine] | – |
| 5.4 | 0.77 | 4.7 | CCOc1ncccc1-c1cc(NCc2nnn(C)n2)c2c(C(C)C)nc(C)n2n1 [Example 23, 2-(2-ethoxy-3-pyridyl)-5-isopropyl-7-methyl-N-[(2-methyltetrazol-5-yl)methyl]imidazo[1,5-b]pyridazin-4-amine] | – |
